From patent publication US20240368174A1, “Antiviral Heterocyclic Compounds” (Enanta Pharmaceuticals, Inc., priority 2023, published 2024)

Test system: HMPV clinical isolate A2 strain TN 94-49
Assay: HMPV antiviral assay, Method 2 (LLC-MK2 cells with CP-100-356, ATP-Lite)
Format: cell-based
Conditions: human metapneumovirus, 168 h; hMPV A2 TN/94-49, LLC-MK2 cells with 4 μM CP-100-356, 7 days, ATP-Lite
Description: In vitro HMPV antiviral activity was evaluated using the clinical isolate A2 strain TN 94-49 (obtained from Dr. John Williams, Vanderbilt University, Tennessee) and LLC-MK2 cells (Millipore Sigma CB_85062804), an immortalized kidney epithelial cell line from Macaca mulatta. Compounds were resuspended in dimethyl sulfoxide (DMSO) at 10 mM, serially diluted and added to a 384-well source plate. Subsequently, the compounds were diluted and transferred onto 384-well assay plates using the Echo-650 automated liquid handling system (Beckman Coulter, Indiana). The test compounds were assessed in duplicate at a top concentration of 200 nM followed by 2.5-fold serial dilutions to give a total of 10 concentration points. DMSO control wells were also included on the assay plates and were either infected or not, acting as positive and negative controls. A2 TN 94-49 virus infections were performed in-suspension with LLC-MK2 cells. The cells were washed twice with PBS and removed from the cell-culture flask with 0.25% trypsin-EDTA (Thermo Fisher Scientific, MA). The trypsin-EDTA was inactivated by resuspending in 2% fetal bovine serum (FBS) and OptiMEM (ThermoFisher Scientific, MA) containing 1% antibiotic-antimycotic. Cells were pelleted by centrifuging for 5 minutes at 800 rpm, the supernatant was removed, and cells were re-suspended and washed in PBS plus 100 μg/mL CaCl2). This step was performed twice. Cells were then re-suspended in serum-free (SF)-OptiMEM containing 4 μg/mL TPCK-Trypsin (Sigma Aldrich, MO), 1% antibiotic-antimycotic (ThermoFisher Scientific, MA), 100 μg/mL CaCl2), and 4 μM of CP-100-356, a P-glycoprotein inhibitor. Cells were counted and seeded at a density of 5,000 cells/well, 12.5 μL/well. Virus infections were done at a multiplicity of infection (MOI) of 0.16 with 12.5 μL added per well. Virus infections were performed in infection media which contained SF-OptiMEM, 100 μg/mL CaCl2) and 1% antibiotic-antimycotic. HMPV viral stocks are suspended in infection media+5% glycerol, thus an equal volume of infection media+5% glycerol was added to uninfected wells to equalize the final % glycerol across all wells of the assay plate. The final concentration of TPCK-trypsin was 2 μg/mL. The final concentration of CP-100-356 was 2 μM. The assay plates were incubated at 37° C., 5% CO2 for 7 days. After 7 days incubation, 12.5 μL of ATP-Lite (PerkinElmer, MA) was added to each well and the raw luminescence values were determined using the Envision 2104 (Perkin Elmer, MA). The average of the raw luminescence values for the cells and virus only positive control wells was subtracted from all conditions tested and the percent cell health was determined by dividing these values by the average of the cells only negative control wells. EC50 values were then calculated by non-linear regression using a four-parameter curve logistic equation. The curve fit model employed was XLFit Dose Response One Site Model 200: y=(A+(B/(1+((x/C)^D)))), where A is the minimum y value, B is the maximum y value, C is the log EC50 value, and D is the slope factor.

EC50, < 200 nM:
COc1cc(C(=O)NC[C@](O)(c2cc3c(c(-c4ccnc5ccccc45)n2)OC[C@]3(C)C(N)=O)C2CC2)cc2cn(C3CC3)nc12 [Example 727]
COc1cc(C(=O)NC[C@](O)(c2cc3c(c(-c4ccnc(C(C)C)c4Cl)n2)OC[C@]3(C)C(N)=O)C2CC2)cc2cn(C3CC3)nc12 [Example 810]
COc1cc(C(=O)NC[C@@](O)(c2ccc(F)cc2)c2cc3c(c(-c4ccnc(C)c4Cl)n2)OC[C@]3(C)C(N)=O)cc2cn(C3(F)CC3)nc12 [Example 647]
COc1cc(C(=O)NC[C@](O)(c2cc3c(c(-c4ccnc(C)c4F)n2)OC[C@]3(C)C(N)=O)C2CC2)cc2cn(C3CC3)nc12 [Example 817]

EC50, > 200 nM:
CC(C)c1nccc(-c2nc([C@@](O)(CNC(=O)c3cc(OC4CC4)c4nn(C5CC5)cc4c3)C3CC3)cc3c2OC[C@]3(C)C(N)=O)c1Cl [Example 913]
COc1cc(C(=O)NC[C@](O)(c2cc3c(c(-c4ccnc(C(C)C)c4Cl)n2)OC[C@]3(C)C(N)=O)C2CC2)cn2cc(C3CC3)nc12 [Example 911]
COc1nccc(-c2nc([C@@](O)(CNC(=O)c3cc(OC4CC4)c4nn(C(F)F)cc4c3)C3CC(F)(F)C3)cc3c2OC[C@]3(C)C(N)=O)c1Cl [Example 898]
COc1cc(C(=O)NC[C@](O)(c2cc3c(c(-c4ccnc(C5CCOCC5)c4Cl)n2)OC[C@]3(C)C(N)=O)C2CC2)cc2cn(C3CC3)nc12 [Example 903]

Same assay, conditions: human metapneumovirus; hMPV A2 TN/94-49, LLC-MK2 cells with CP-100-356, Method 2

EC50, < 200 nM:
COc1nccc(-c2nc([C@@](O)(CNC(=O)c3cc(OC4CC4)c4nn(C(F)F)cc4c3)C3CC3)cc3c2OC[C@]3(C)C(N)=O)c1Cl [Example 591]
COc1cc(C(=O)NC[C@@](O)(c2cccc(F)c2)c2cc3c(c(-c4ccnc(C(F)F)c4Cl)n2)OC[C@]3(C)C(N)=O)cc2oc(C(F)F)nc12 [Example 568]
COc1cc(C(=O)NC[C@@](O)(c2ccccc2)c2cc3c(c(-c4cc(Cl)ccc4F)n2)OC[C@]3(C)C(N)=O)cc2oc(C3CC3)nc12 [Example 331]
COc1cc(C(=O)NC[C@](O)(c2cc3c(c(-c4c(F)cncc4F)n2)OC[C@]3(C)C(N)=O)C2CC2)cc2cn(C3CC3)nc12 [Example 433]
COc1cc(C(=O)NC[C@@](O)(c2ccccc2)c2cc3c(c(-c4cc(Cl)c(F)cc4F)n2)OC[C@]3(C)C(N)=O)cn2cc(C3CC3)nc12 [Example 115]
COc1cc(C(=O)NC[C@@](O)(c2cccc(F)c2)c2cc3c(c(-c4ccnc(C)c4Cl)n2)OC[C@]3(C)C(N)=O)cc2oc(C3CC3)nc12 [Example 540]
COc1cc(C(=O)NC[C@@](O)(c2ccccc2)c2cc3c(c(-c4ccnc(F)c4Cl)n2)OC[C@]3(C)C(N)=O)cn2cc(C3CC3)nc12 [Example 359]
COc1cc(C(=O)NC[C@@](O)(c2cccc(C#N)c2)c2cc3c(c(-c4cc(Cl)c(F)cc4F)n2)OC[C@]3(C)C(N)=O)cc2cn(C3CC3)nc12 [Example 488]
COc1cc(C(=O)NC[C@@](O)(c2ccccc2)c2cc3c(c(-c4cc(C(F)F)c(F)cc4F)n2)OC[C@]3(C)C(N)=O)cc2cn(C(F)F)nc12 [Example 300]
COc1cc(C(=O)NC[C@@](O)(c2ccccc2)c2cc3c(c(-c4cc(C(F)(F)F)c(F)cc4F)n2)OC[C@]3(C)C(N)=O)cc2cn(C3(F)CC3)nc12 [Example 303]

EC50, > 200 nM:
COc1cc(C(=O)NC[C@@](O)(c2ccccc2)c2cc3c(c(-c4cc(Cl)c(F)cc4F)n2)OC[C@]3(C)C(N)=O)cc(O)c1NC(=O)C1(F)CC1 [Example 242]
COc1cc(C(=O)NC[C@@](O)(c2cc3c(c(-n4ccc5ccccc54)n2)OC[C@]3(C)C(N)=O)C2CC2)cc2cn(C3CC3)nc12 [Example 444]
Cc1nc2c(OC(F)(F)F)cc(C(=O)NC[C@@](O)(c3ccccc3)c3cc4c(c(-c5cc(Cl)c(F)cc5F)n3)OC[C@]4(C)C(N)=O)cc2s1 [Example 188]
